A short description of the experiment: DPPH (2,2-diphenyl-1-picrylhydrazyl) in vitro antioxidant / radical scavenging test. It counts as biochemical. The following applies: 517 nm; for Inhibition: radical scavenging inhibition of DPPH, vitamin C as reference. The method, then: A new polyfunctionalized pyridine 6′-(4-bromophenyl)-2′-ethoxy-3,4′-bipyridine-3′-carbonitrile (4) was investigated for its antioxidant activity by 2,2-diphenyl-1-picrylhydrazyl (DPPH) in vitro tests that employ vitamin C as the positive control. The product 4 magnitude estimated the antioxidant potential to vanish the DPPH radical distinctive colors at 517 nm. […] The radical scavenging inhibition was calculated using the following equation: […]
(In general: The DPPH test is a chemical assay of radical scavenging.)

The molecule `O=C1O[C@H]([C@@H](O)CO)C(O)=C1O` [vit c, vitamin C, reference compound] showed an Inhibition of 74%. Turning to `CCOc1nc(-c2ccc(Br)cc2)cc(-c2cccnc2)c1C#N` [Product 4, 6′-(4-bromophenyl)-2′-ethoxy-3,4′-bipyridine-3′-carbonitrile], the Inhibition is reported as 48%. For the same molecule, for the setting “DPPH in vitro test”, the “antioxidant potential compared to vitamin C” value was “high potential as an antioxidant”.

What is called Inhibition is the change of the read-out against control, counted positive when it falls. Higher therefore signals strong suppression.

The record behind these values is patent publication US11919862B1, “6′-(4-bromophenyl)-2′-ethoxy-3,4′-bipyridine-3′-carbonitrile as an antioxidant” (KING FAISAL UNIVERSITY, priority 2023, dated 2024).
